“Also recorded” adds a separate entry of the source.
Assays:
blood cells = assay: Complete blood cell counts in whole blood; format: in vivo, mouse; conditions: vs untreated SOD1
Description: FIG. 6 is a graph showing complete blood cell counts in whole blood. SOD1 animals received a loading dose of 2.5 mg/kg fingolimod orally, then oral 1.8 mg/kg once weekly for 3 weeks. Complete blood cell counts included basophils (BAS), eosinophils (EOS), monocytes (MON), lymphocytes (LYM), neutrophils (NEU), and white blood cells (WBC).
Whole blood counts were also measured. Upon sacrifice, blood was removed and complete blood cell counts were performed.

[1] = cited from earlier work
G93A-SOD1 mice = assay: Disease progression, onset and survival in the SOD1 ALS mouse model; format: in vivo; conditions: vs untreated SOD1
Source text: FIGS. 7A, 7B, 7C, and 7D are charts showing symptomatic neurological disease progression in untreated SOD1 mice and SOD1 fingolimod treated mice. FIGS. 7A and 7C show the results for SOD1 mice having a low number (14-20) of copies of the transgene. FIGS. 7B and 7D show the results for SOD1 mice having a high number (20-25) copies of the transgene. Neurological disease progression was defined as the average neurological score over time for male SOD1 mice. For each chart, the lower line represents the SOD1 fingolimod treated mice; the upper line (i.e., having lower probability at each age in days, Dage) represents the untreated SOD1 mice.
FIG. 8A is a chart comparing disease onset probability as assessed by the Cox Proportional Hazards model in untreated SOD1 and SOD1 fingolimod treated mice. The black right line represents the SOD1 fingolimod treated mice; the gray left line represents the untreated SOD1 mice.
FIG. 8B is a chart comparing survival as assessed by the Cox Proportional Hazards model in untreated SOD1 mice and SOD1 fingolimod treated mice for individual animals. The black right line represents the SOD1 fingolimod treated mice; the gray left line represents the untreated SOD1 mice.
FIG. 9A is a chart showing disease onset probability as calculated by the Weibull method versus time in untreated SOD1 mice and SOD1 fingolimod treated mice. The right line represents the SOD1 fingolimod treated mice; the left line represents the untreated SOD1 mice.
FIG. 9B is a chart showing survival as calculated by the Weibull method versus time in untreated SOD1 mice and SOD1 fingolimod treated mice. The right line represents the SOD1 fingolimod treated mice; the left line represents the untreated SOD1 mice.
To assess the impact of reducing T lymphocyte cell proliferation on disease progression in the SOD1 preclinical animal model, fingolimod was administered to SOD1 mice and parameters of disease progression were measured, including daily measurements of neurological severity score, as well as T lymphocyte cell proliferation.
Neurological scores for both hind legs were assessed daily for each mouse from 50 days of age. The neurological score employed a scale of 0 to 4 that was developed by observation at ALSTDI (Scott et al., 2008). […] Animals were assigned a score of 2 when the toes curled under at least twice during walking a distance of 12 inches, or any part of the foot was dragging along the cage bottom/table. Animals were assigned a score of 3 when they had rigid paralysis or minimal joint movement, or a foot was not being used for forward motion. Animals were assigned a score of 4 when they […] within 30 seconds after being laid on either side. At the point where at least one hind leg was scored as 2, food pellets were left on the cage bedding to permit easy access to food. If both hind legs were scored as 2, Nutra-Gel® (Bio-Serve #S4798) was provided as food in addition to food pellets placed on the cage bedding and a long sipper tube was placed on the water bottle.
Date and cause of death were recorded for each mouse. For humane reasons, animals were closely monitored and sacrificed as moribund prior to actual death using criteria for severe moribundity. To determine duration of survival reliably and humanely, the moribund state, defined as the inability of mice to right themselves 30 seconds after being placed on a side (a neurological score of 4) was used. The moribund mice were scored as “dead,” and were euthanized using carbon dioxide asphyxiation.
To determine the impact of reducing T lymphocyte cell proliferation on disease progression in the SOD1 preclinical animal model, a Weibull analysis was performed on the data from the animal study described in Examples 3-5.

[2] = tested on: lymphocytes in the spleen; assay: Lymphocyte cell counts in spleen by FACS; format: in vivo, mouse; conditions: vs untreated SOD1
Description: FIG. 5 is a graph showing cell counts in spleens of animals. SOD1 animals received a loading dose of 2.5 mg/kg fingolimod orally, then oral 1.8 mg/kg once weekly for 3 weeks. Lymphocyte counts were measured via FACS for various cell surface antigens in the spleen.
Lymphocytes were also measured in the spleens of SOD1 fingolimod treated mice and untreated SOD1 mice. After sacrifice, spleens were harvested from each animal and subjected to fluorescent activated cell sorting for each of the cell surface antigens: CD11b, CD28, CD3, CD4, CD86, […], and LY6G.

CD8+ lymphocytes = assay: FACS analysis of circulating CD8+ lymphocytes in whole blood of SOD1 mice; format: in vivo, mouse; conditions: for CD8+ cells in whole blood: 4 hours after third dose, control approximately 5%
Description: FIG. 3A is a fluorescent activated cell sorting (FACS) analysis showing the reduction of CD8+ lymphocytes in the circulation of male SOD1 mice that results from fingolimod treatment. A high dose of fingolimod (IP Loading Dose 2.5 mg/kg, Maintenance Dose 1.8 mg/kg q7d), a low dose of fingolimod (IP Loading Dose 0.44 mg/kg, Maintenance Dose 0.32 mg/kg) and a vehicle control group were tested over 14 days. Tissues were harvested 4 hours after the third dose. This time point was selected to best characterize the behavior of lymphocytes when circulating levels of the drug were near peak.
The following dosage regimen was used to determine the dose dependent effects of fingolimod in SOD1 mice: • Cohorts: • 1) SOD1 Fingolimod Treated “High Dose” (Load 2.5 mg/kg, 1.8 mg/kg Oral q7d) • 4 hour post final dose harvest • 7 day post final dose harvest • 2) SOD1 Fingolimod Treated “Low Dose” (Load 0.44 mg/kg, 0.32 mg/kg Oral q7d) • 4 hour post final dose harvest • 7 day post final dose harvest • 3) SOD1 Vehicle Control • 4 hour post final dose harvest • 7 day post final dose harvest
The predicted plasma fingolimod load for both the high dose and the low dose regimes were determined, see FIGS. 2A and 2B. Tissues were harvested 4 hours after the third fingolimod dose. This time point was selected to best characterize the behavior of lymphocytes in animals treated with fingolimod when circulating levels of the drug are near peak concentration.

[3] = tested on: experimental autoimmune neuritis; conditions: Zhang et al. 2008, cited from earlier work
[4] = load 2.5 mg/kg oral then 1.8 mg/kg once weekly for 3 weeks
[5] = whole blood, vs vehicle control

SMILES: CCCCCCCCc1ccc(CCC(N)(CO)CO)cc1 [fingolimod, 2-amino-2-(4-octylphenethyl)propane-1,3-diol]
- basophils (BAS) count (blood cells; [4]): decreased numbers
- eosinophils (EOS) count (blood cells; same regimen): decreased numbers
- lymphocytes (LYM) count (blood cells; same regimen): decreased numbers
- monocytes (MON) count (blood cells; same regimen): decreased numbers
- neutrophils (NEU) count (blood cells; same regimen): no significant change
- white blood cells (WBC) count (blood cells; same regimen): decreased numbers
- CNS penetration and localization ([1]; Foster et al. 2007): CNS penetrant and localizes in the CNS white matter
- brain/plasma ratio (in words) ([1]; Meno-Tetang 2006): high
- plasma half-life (in words) ([1]; Meno-Tetang 2006): relatively long
- disease onset probability (Weibull method) (G93A-SOD1 mice; SOD1 mice): reduced disease onset probability
- survival probability (Weibull method) (G93A-SOD1 mice; SOD1 mice): increased survival probability
- neurological score over time (G93A-SOD1 mice; male SOD1 mice, high copy number (20-25 copies)): improvement
- neurological score over time (G93A-SOD1 mice; male SOD1 mice, low copy number (14-20 copies)): improvement
- disease onset probability (Cox Proportional Hazards model) (G93A-SOD1 mice; male SOD1 mice): delayed onset of disease
- survival (Cox Proportional Hazards model) (G93A-SOD1 mice; male SOD1 mice): extended survival
- lymphocyte count, CD11b [2, 4]: decreased lymphocyte count
- lymphocyte count, CD3 ([2]; same regimen): decreased lymphocyte count
- lymphocyte count, CD4 ([2]; same regimen): decreased lymphocyte count
- lymphocyte count, CD28 ([2]; same regimen): decreased lymphocyte count
- lymphocyte count, CD86 ([2]; same regimen): decreased lymphocyte count
- lymphocyte count, CTLA34 ([2]; same regimen): decreased lymphocyte count
- lymphocyte count, LY6G ([2]; same regimen): decreased lymphocyte count
- circulating CD8 positive cells in whole / peripheral blood (in words) (CD8+ lymphocytes; SOD1 animals, high and low dose groups): fewer; also recorded: transiently depletes
- CD8+ cells in whole blood (CD8+ lymphocytes; high dose (load 2.5 mg/kg, 1.8 mg/kg q7d)): less than 2%
- CD8+ cells in whole blood (CD8+ lymphocytes; low dose (load 0.44 mg/kg, 0.32 mg/kg q7d)): less than 2%
- reduction in CD8+ cells (CD8+ lymphocytes; [5]): > 66%
- reduction in CD8+ cells (fold) (CD8+ lymphocytes; [5]): over three-fold
- severity and duration of experimental autoimmune neuritis [3]: reduced the severity and duration
- paraparesis ([3]; if administrated with immunization): suppress paraparesis

Source: patent US8946301B2, “Targeting of T-lymphocytes to treat amyotrophic lateral sclerosis” (ALS Therapy Development Institute, priority 2011, dated 2015)
